Laboratory results published in patent US20100068297A1, “Antimicrobial Composition” (NATURE THERAPEUTICS LIMITED, priority 2006, published 2010).
Several values for one entry are separate records, joined by “and”; a condition that tells them apart may be missing. Identical values can stand only once.

Tests used:
E. coli = experiment: Suspension assay, 30 minutes exposure, viable count; assay type: cell-based; details: no Vitamin C
Procedure: All reagents were purchased from Sigma-Aldrich (Poole, Dorset) and distilled water was used throughout. Overnight cultures on nutrient agar were then suspended in Ringer's solution (Oxoid, U.K.) to a turbidity equivalent to 0.5 McFarland (1.5×10^8 CFU/ml). […] The final solution was protected from light (Stewart et al. 1998. J. Appl Microbiol 84:777-783). The appropriate bacterial dilution was prepared and 50 μl placed in a sterile Eppendorf micro-centrifuge tube with a 100 μl of the extract/metal salt solution. […] Serial dilutions were prepared in Ringer's solution (10^−5), 10 μl of each dilution is spotted on nutrient agar plate and incubated for 24 hours at 37° C. Each assay was conducted in triplicate. The assay was carried out as described above with the following addition: […]

PVL positive cMRSA = experiment: Suspension test, 2 hours, clinical isolates; assay type: cell-based, Staphylococcus aureus; details: 2 hours exposure, 10 clinical isolates
Procedure: Clinical isolates of methicillin resistant (n=10), methicillin sensitive (n=10) Staphylococcus aureus (MRSA and MSSA) and Panton-Valentine Leukocidin producing cMRSA (n=10) were used in the study. The MRSA and MSSA isolates were collected from the Royal Marsden Hospital (London, UK) and the cMRSA isolates were collected from the Devon and Exeter Hospital (UK). The isolates were cultured over night on nutrient agar (Oxoid), aerobically at 37° C. and then frozen in cyrovials (Pro-labs) at −80° C. until required. Prior to use all isolates were passaged twice on nutrient agar aerobically at 37° C. In all assays culture were prepared by using overnight cultures on nutrient agar that were then suspended in Ringer's solution (Pro-Lab, U.K.) to a turbidity equivalent to 0.5 McFarland (1.5×10^8 cfu ml^−1).
Briefly, overnight cultures on nutrient agar were then suspended in Ringer's solution (Oxoid, U.K.) to a turbidity equivalent to 0.5 McFarland (1.5×10^8 CFU/ml).
The appropriate bacterial dilution was prepared and 50 μL it placed in a sterile Eppendorf micro-centrifuge tube with a 100 μL of the extract/metal salt solution. Following treatment of the bacteria for 2 hours at room temperature, the activity of the bactericidal agent was neutralized by adding an equal volume of 2% (v/v) Tween-80 (Sigma Chemical Co., UK) in Lambda buffer. […]

MRSA = experiment: Micro-dilution MIC, alone and in combination; assay type: cell-based, Staphylococcus aureus; details: each table line is a group of isolates; 24 h
Procedure: The plates were prepared as follows, 50 μl of four-times strength Iso-Sensitest broth was added to the first row of wells and 50 μl of double strength Iso-Sensitest broth was added to all remaining wells. To the first row of wells 50 μl of the PRE was added and mixed, 50 μl of broth from row A was transferred to row B and mixed, this process was continued to row E Finally, 50 μl of broth was removed from well F and discarded. Then the overnight cultures were suspended in Ringers solution to a turbidly of 0.5 McFarland (1.5×10^8 cfu/ml). 50 μl of suspension were added to well A (final concentration of PRE in well A=200 mg/ml) through to G All samples were carried out in Triplicate. All plates were incubated at 37° C. for 24 hours. After incubation 10 μl of broth from each well was spotted onto nutrient agar and incubated at 37° C. for 24 hours. After incubation the plates were examined to determine breakpoints by the presence or absence of growth.

[1] = system: ESβL Pseudomonas aeruginosa clinical isolates; experiment: Suspension test, aqueous preparations, 30 minutes; assay type: cell-based; details: no Vitamin C, nine isolates, listed as Cu(II)
Procedure: P. aeruginosa isolates were removed from the freezer and first passaged on nutrient agar twice before use. Overnight cultures on nutrient agar were then suspended in Ringer's solution (Oxoid, U.K.) to a turbidity equivalent to 0.5 McFarland (1.5×10^8 CFU/ml).
The appropriate bacterial dilution was prepared and 50 μl placed in a sterile Eppendorf micro-centrifuge tube with a 100 μl of the extract/metal salt solution. After exposure of the bacteria for 30 minutes at room temperature, the activity of the bactericidal agent was neutralized by adding an equal volume of 2% (v/v) Tween-80 (Sigma Chemical Co., UK) in Lambda buffer (Stewart et al. 1998). Serial dilutions were prepared in Ringer's solution (10^−5), 10 μl of each dilution is spotted on nutrient agar plate and incubated for 24 hours at 37° C. Each assay was conducted in triplicate.
The assay was carried out as described above with the following addition: Vitamin C was added to the metal ion solution immediately prior to mixing with the PRE. Aliquots of Vitamin C were made to give final metal ion:Vitamin C ratios (and Vitamin C concentrations) of 1:1 (4.8 mM), 1:5 (24 nM), 1:20 (96 mM) (metal salt:Vitamin C). 700 μl of this solution was then added to PRE.

Staph. aureus = experiment: Tea extracts with metal salts, suspension assay 30 min; assay type: cell-based, Staphylococcus aureus; details: Lambda buffer control
Procedure: (§1) Tea infusions were prepared as previously with boiling sterilized distilled water. After 10 minutes, the extracts are removed from the beaker into sterilized universal tubes. The pH of these extracts was neutralized using a 1 M NaOH solution. The extracts are refrigerated, used within 4 days and without further treatment. Overnight cultures of the Gram-positive strain (Staph. aureus) and the Gram-negative strains (Ps. aeruginosa and Prot. mirabilis) were suspended in Ringers solution to a turbidity equivalent to 0.5 McFarland (1.5×10^8 CFU/ml). Metal salts were added to the optimum tea extracts immediately before the assay was conducted. […] The appropriate bacterial dilution was prepared and 50 μl of that was placed in a sterile Eppendorf micro-centrifuge tube with a 100 μl of the extract/metal salt solution. […] Serial dilutions were prepared in Ringer's solution, 10 μL aliquots of each dilution were spotted onto nutrient agar plates and incubated aerobically for 24 hours at 37° C. Each assay was conducted in triplicate.

Prot. mirabilis = experiment: as above; assay type: cell-based, Proteus mirabilis; details: Lambda buffer control
Procedure: as §1

Ps. aeruginosa = experiment: as above; assay type: cell-based, Pseudomonas aeruginosa; details: Lambda buffer control
Procedure: as §1

Pseudomonas aeruginosa = experiment: In vitro bactericidal assay, control strain; assay type: cell-based; details: metal ion added to PRE
Procedure: The control strain was Pseudomonas aeruginosa for standard experimentation, ie determining optimal preparations.
Growth conditions: on nutrient agar provided by Oxoid Ltd for 24 hrs at 37° C.
The inventor established a functional in vitro bactericidal assay to screen a variety of formulations (cream, aqueous and ointment). This assay involved adding 0.5 g of ointment to 10 ml of water and vortexing prior to a standard suspension test using 50 microlitres of bacterial cell suspension to a turbidity of 0.5 McFarland solution (bacterial cell suspension equal to 1.5×10^8) plus 100 microlitres of the ointment solution. After incubation in the dark at room temperature for 30 mins, serial dilutions (from 10^−1 to 10^−5) were carried out on nutrient agar.
In terms of mechanisms of action, the preference for using metal ions in the reduced state led to the incorporation of studies using reductants to stabilize this oxidation state, and prolong and enhance activity. Thus, the reductant Vitamin C was added in three different doses after pre-incubating the PRE/metal ions mixtures for 30 minutes, and the results are shown in FIG. 2.
The longer term activities of the PRE:metal salt(s) mixtures were investigated after a period of 24 and 48 hours, and the results are shown in FIG. 4. […] The results shown are for one system only as an example.

SMILES	reduction of surviving population / growth, factor compared to the buffer (E. coli)	isolates in which the 10^3 log reduction in growth was observed (PVL positive cMRSA)	reduction in growth (PVL positive cMRSA)	MIC, agent alone (MRSA)	reduction in growth (mean values) [1]	bactericidal efficacy, reduction in CFU/mL (factor) (Staph. aureus)	bactericidal efficacy, reduction in CFU/mL (factor) (Prot. mirabilis)	bactericidal efficacy, reduction in CFU/mL (factor) (Ps. aeruginosa)	activity of the metal ion solution upon addition to PRE (Pseudomonas aeruginosa)
O=S(=O)([O-])[O-].[Cu+2] [CuSO4, copper (II) sulfate]	10^4	60%	10^3 log10	3125 µg/mL and 1563 µg/mL	~10^1 log10 and ~10^2 log10	10^4	10^2	10^2	highest activities
O=S(=O)([O-])[O-].[Fe+2] [FeSO4, iron (II) sulfate]	–	–	–	–	–	poor efficacy	10^3	10^3	highest activities
O=S(=O)([O-])[O-].[Mn+2] [MnSO4]	–	–	–	–	–	poor efficacy	minimal	minimal	little or no activity
O=S(=O)([O-])[O-].[Zn+2] [ZnSO4]	–	–	–	–	–	–	–	–	little or no activity
